The structures appear in SMILES notation. Some results are limits rather than exact numbers.

The text below walks through data of patent US20070092467A1, “Oxyacetamide compounds useful for stimulating or inducing the growth and/or retarding the loss of keratin fibers” (L'OREAL, priority 2004, published 2007).

One experiment has as its target T1, PGF synthase (Homo sapiens, UniProt P42330).
T1 construct: made in house
T1 sequence (P42330 1-323): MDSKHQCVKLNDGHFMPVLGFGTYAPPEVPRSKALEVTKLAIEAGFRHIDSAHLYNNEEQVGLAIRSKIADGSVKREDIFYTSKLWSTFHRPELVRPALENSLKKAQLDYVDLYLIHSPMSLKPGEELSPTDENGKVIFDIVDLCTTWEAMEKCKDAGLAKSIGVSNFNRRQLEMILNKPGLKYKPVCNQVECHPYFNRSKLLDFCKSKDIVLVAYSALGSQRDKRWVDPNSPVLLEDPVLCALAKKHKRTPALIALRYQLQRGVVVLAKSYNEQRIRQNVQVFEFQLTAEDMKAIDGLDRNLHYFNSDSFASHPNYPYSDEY
As to the kind of experiment: Test on PGF synthase (spectrophotometric, 340 nm, maximum reaction rate). It is filed as biochemical. The conditions noted are these: IC50fs; 37° C., pH 6.5; read-out: Inhibition of PGFS IC50. The method, then:
(§1) For the purposes of the test, this suspension is thawed and stored in ice.
0.950 mL of this buffer (brought to 37° C. beforehand) is introduced into the cuvette of a spectrophotometer (Perkin-Elmer, Lambda 2) thermostatically maintained at 37° C., the measuring wavelength of which is set at 340 nm. 0.05 mL of enzymatic suspension at 37° C. is introduced into the cuvette concomitantly with the recording (corresponding to a reduction in the optical density at 340 nm). The maximum reaction rate is recorded.
As for `O=C(COc1cccc(Cl)c1)NCc1ccco1` [Compound 23], the IC50 was more than 50 µM.

Still in this experiment, the particulars now being: compound at 50 μM; read-out: Inhibition of PGFS % inhibition at 50 μM.
On to `O=C(COC1CCCCC1)NCc1ccccc1` [Compound 21], for which the inhibition at 50 µM worked out at 24%.
Still for that read-out and setting: the result for `O=C(COc1cccc(Cl)c1)NCc1ccco1` [Compound 23] reads 25%; that for `O=C(COc1ccccc1)NCc1ccccc1` [Compound 24], 4%.

For the next experiment, the target named is T2, type-1 15-PGDH (Homo sapiens, UniProt P15428).
T2 construct: made in house
T2 sequence (P15428 1-266): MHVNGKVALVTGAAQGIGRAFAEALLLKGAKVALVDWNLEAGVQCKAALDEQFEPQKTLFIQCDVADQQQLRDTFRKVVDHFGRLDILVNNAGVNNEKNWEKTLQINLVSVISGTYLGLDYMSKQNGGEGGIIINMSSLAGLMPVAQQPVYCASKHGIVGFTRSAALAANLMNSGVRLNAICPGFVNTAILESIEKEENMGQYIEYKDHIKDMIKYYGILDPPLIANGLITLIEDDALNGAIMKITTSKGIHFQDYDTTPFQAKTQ
As to the kind of experiment: Test on type-1 15-PGDH (spectrophotometric, 340 nm, maximum reaction rate). Type of experiment: biochemical. The conditions noted are these: IC50dh; 37° C., pH 7.4; read-out: Inhibition of 15-PGDH IC50. The procedure: 1) Test on type-1 15-PGDH:
as §1
0.965 ml of this buffer (brought to 37° C. beforehand) is introduced into the cuvette of a spectrophotometer (Perkin-Elmer, Lambda 2) thermostatically maintained at 37° C., the measuring wavelength of which is set at 340 nm. 0.035 ml of enzymatic suspension at 37° C. is introduced into the cuvette concomitantly with the recording (corresponding to an increase in the optical density at 340 nm). The maximum reaction rate is recorded.
For `O=C(COc1cccc(Cl)c1)NCc1ccco1` [Compound 23], the IC50 was determined as 16 µM.

Still in this experiment, the particulars now being: compound at 50 μM.
On to `O=C(COC1CCCCC1)NCc1ccccc1` [Compound 21], for which the inhibition at 50 µM was determined as 63%.
With `CCCCCCOCC(=O)NCc1ccccc1` [Compound 22], the inhibition at 50 µM is 47%.
Regarding `O=C(COc1cccc(Cl)c1)NCc1ccco1` [Compound 23], the inhibition at 50 µM came to 80%.
As to `O=C(COc1ccccc1)NCc1ccccc1` [Compound 24], the inhibition at 50 µM stood at 55%.
The same measure, in the same setting: the result for `O=C(COc1cccc(Cl)c1)NCc1ccccc1` [Compound 25] reads 50%; that for `O=C(COc1ccc(Cl)cc1)NCc1ccccc1` [Compound 26], 30%.

Still in this experiment, the particulars now being: compound at 100 μM; 37° C., pH 7.4, PGE2 50 μM, β-NAD 1.5 mM.
On to `O=C(COCc1ccccc1)NC[C@@H]1CCCO1` (stereo in doubt) [Compound 14, 2-benzyloxy-N-(tetrahydrofuran-2-ylmethyl)acetamide], for which the inhibition at 100 µM was 50%.
As to `Cc1cccc(C)c1NC(=O)COc1cccc2cccnc12` [Compound 1, N-(2,6-dimethylphenyl)-2-(quinolin-8-yloxy)acetamide], the inhibition at 100 µM was determined as 49%.
Consider `O=C(COc1cccc2cccnc12)Nc1ccccc1Cl` [Compound 2], for which the inhibition at 100 µM came to 115%.
`O=C(COc1cccc2cccnc12)Nc1ccccc1C(F)(F)F` [Compound 3, 2-(quinolin-8-yloxy)-N-(2-trifluoromethylphenyl)acetamide]: the inhibition at 100 µM is 128%.
On to `CCOC(=O)c1ccc(NC(=O)COc2ccc(C(C)=O)cc2)cc1` [Compound 4, 4-[2-(4-Acetylphenoxy)acetylamino]benzoic acid ethyl], for which the inhibition at 100 µM came to 49%.
Consider `Cc1nc2cc(OCC(=O)Nc3ccc(OC(F)(F)F)cc3)ccc2s1` [Compound 5, 2-(2-Methyl-benzothiazol-5-yloxy)-N-(4-trifluoromethoxy-phenyl) acetamide], for which the inhibition at 100 µM amounted to 53%.
On to `O=C(COc1ccc(-n2ccnc2)cc1)Nc1ccccc1Cl` [Compound 6, N-(2-Chloro-phenyl)-2-(4-imidazol-1-yl-phenoxy)-acetamide], for which the inhibition at 100 µM worked out at 54%.
For `O=C(COc1ccc2c(c1)C(=O)c1ccccc1-2)Nc1cccc(C(F)(F)F)c1` [Compound 7, 2-(9-Oxo-9H-fluoren-2-yloxy)-N-(3-trifluoromethyl-phenyl) acetamide], the inhibition at 100 µM worked out at 61%.
With `O=C(COc1ccc2c(c1)C(=O)c1ccccc1-2)Nc1ccc(C(F)(F)F)cc1` [Compound 8, 2-(9-Oxo-9H-fluoren-2-yloxy)-N-(4-trifluoromethyl-phenyl) acetamide], the inhibition at 100 µM was 65%.
With `CCCCCCc1ccc(NC(=O)COc2ccc3sc(C)nc3c2)cc1` [Compound 9, N-(4-Hexyl-phenyl)-2-(2-methyl-benzothiazol-5-yloxy) acetamide], the inhibition at 100 µM was determined as 69%.
As to `O=C(COc1ccc(-n2cccc2)cc1)Nc1ccccc1C(F)(F)F` [Compound 10], the inhibition at 100 µM came out at 71%.
Regarding `O=C(COc1ccc2oc3ccccc3c2c1)Nc1ccc(OC(F)(F)F)cc1` [Compound 11, 2-(Dibenzofuran-2-yloxy)-N-(4-trifluoromethoxy-phenyl) acetamide], the inhibition at 100 µM is 74%.
Take `O=C(COc1ccc(-n2ccnc2)cc1)Nc1ccccc1C(F)(F)F` [Compound 12, 2-(4-imidazol-1-yl-phenoxy)-N-(2-trifluoromethyl-phenyl) acetamide]: the inhibition at 100 µM was determined as 125%.
On to `COc1cc(C(C)=O)ccc1OCC(=O)Nc1ccccc1C(F)(F)F` [Compound 13, 2-(4-Acetyl-2-methoxy-phenoxy)-N-(2-trifluoromethyl-phenyl) acetamide], for which the inhibition at 100 µM turned out to be 126%.
With `Cc1ccc(CNC(=O)COCc2ccccc2)o1` [Compound 15, 2-Benzyloxy-N-(5-methyl-furan-2-ylmethyl)-acetamide], the inhibition at 100 µM came out at 51%.
Take `O=C(COCc1ccccc1)NC1CCCC1` [Compound 16, 2-Benzyloxy-N-cyclopentylacetamide]: the inhibition at 100 µM is 76%.
As for `CC(C)(C)c1ccc(OCC(=O)NC[Si](C)(C)C)cc1` [Compound 17, 2-(4-tert-Butyl-phenoxy)-N-trimethylsilanylmethyl-acetamide], the inhibition at 100 µM is 50%.
As for `C[Si](C)(C)CNC(=O)COCc1ccccc1` [Compound 18, 2-Benzyloxy-N-trimethylsilanylmethyl-acetamide], the inhibition at 100 µM stood at 88%.
For the compound `C[Si](C)(C)CNC(=O)COc1ccccc1` [Compound 19, 2-Phenoxy-N-trimethylsilanylmethyl-acetamide], the inhibition at 100 µM is 95%.
For the compound `CSCCNC(=O)COc1ccccc1` [Compound 20], the inhibition at 100 µM was 85%.
Turning to `O=C(COCc1ccccc1)NCc1ccccc1` [Compound 27], the inhibition at 100 µM came to 48%.
On to `N#Cc1ccc(-c2ccc(OCC(=O)Nc3cccc([N+](=O)[O-])c3)cc2)cc1` [Compound 28], for which the inhibition at 100 µM was 54%.
Take `O=C(COc1ccccc1)NC[C@@H]1CCCO1` [Compound 29]: the inhibition at 100 µM came out at 54%.
For `CCCCCCNC(=O)COc1ccccc1` [Compound 31], the inhibition at 100 µM came to 57%.
Turning to `CC(=O)c1ccc(OCC(=O)Nc2ccccc2C(F)(F)F)cc1` [Compound 32], the inhibition at 100 µM worked out at 59%.
On the same count and under the same terms, the result for `O=C(COc1ccccc1)NCc1ccccc1` [Compound 33] reads 61%; that for `O=C(COc1cccc2cccnc12)Nc1cccc([N+](=O)[O-])c1` [Compound 34], 69%.
As for `O=C(COc1ccc(-c2ccccc2)cc1)Nc1ccccc1C(F)(F)F` [Compound 35], the inhibition at 100 µM was 70%.
